Measurements taken from ChEMBL document CHEMBL2034935, “Discovery of a Novel Series of CRTH2 (DP2) Receptor Antagonists Devoid of Carboxylic Acids” (ACS Med Chem Lett, 2011).

Assays:
[1] = target: T1, Prostaglandin D2 receptor 2 (Homo sapiens, UniProt Q9Y5Y4); test: Displacement of [3HPGD2 from human CRTH2 receptor expressed in CHO cell membrane after 90 mins by scintillation proximity assay; type: cell membranes
T1 sequence (Q9Y5Y4 whole entry): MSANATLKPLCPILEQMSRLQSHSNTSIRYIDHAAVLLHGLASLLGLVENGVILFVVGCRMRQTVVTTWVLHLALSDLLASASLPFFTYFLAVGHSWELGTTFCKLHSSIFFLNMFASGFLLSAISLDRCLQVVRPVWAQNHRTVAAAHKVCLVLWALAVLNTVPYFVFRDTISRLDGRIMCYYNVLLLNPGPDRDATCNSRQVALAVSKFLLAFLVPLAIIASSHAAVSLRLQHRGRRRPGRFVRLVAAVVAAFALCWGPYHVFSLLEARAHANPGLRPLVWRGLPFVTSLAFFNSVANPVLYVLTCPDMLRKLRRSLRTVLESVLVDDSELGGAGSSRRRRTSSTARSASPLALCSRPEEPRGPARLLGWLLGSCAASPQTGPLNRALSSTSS

[2] = target: T2, Prostaglandin D2 receptor 2 (Homo sapiens) (UniProt Q9Y5Y4); test: Agonist activity at human CRTH2 receptor expressed in CHO cell membrane assessed as induction of [35S]GTPgammaS binding at 20 uM after 30 mins by microbeta scintillation counting relative to PGD2; type: functional, cell membranes
T2 sequence (whole entry): T1 sequence (Q9Y5Y4 whole entry)

[3] = target: T1, Prostaglandin D2 receptor 2; test: Antagonist activity at human CRTH2 receptor expressed in CHO cell membrane assessed as inhibition of PGD2-induced [35S]GTPgammaS binding after 30 mins by microbeta scintillation counting; type: functional, cell membranes
[4] = target: T2, Prostaglandin D2 receptor 2 (Homo sapiens); test: Antagonist activity at human CRTH2 receptor expressed in CHO cell membrane assessed as inhibition of PGD2-induced [35S]GTPgammaS binding at 2 uM after 30 mins by microbeta scintillation counting relative to control; type: functional, cell membranes
Cytochrome P450 1A2 = target: T3, Cytochrome P450 1A2 (Homo sapiens, UniProt P05177); test: Inhibition of human recombinant CYP1A2 incubated for 15 mins prior to substrate addition measured after 30 mins by spectrophotometry; type: ADME
T3 sequence (P05177 whole entry): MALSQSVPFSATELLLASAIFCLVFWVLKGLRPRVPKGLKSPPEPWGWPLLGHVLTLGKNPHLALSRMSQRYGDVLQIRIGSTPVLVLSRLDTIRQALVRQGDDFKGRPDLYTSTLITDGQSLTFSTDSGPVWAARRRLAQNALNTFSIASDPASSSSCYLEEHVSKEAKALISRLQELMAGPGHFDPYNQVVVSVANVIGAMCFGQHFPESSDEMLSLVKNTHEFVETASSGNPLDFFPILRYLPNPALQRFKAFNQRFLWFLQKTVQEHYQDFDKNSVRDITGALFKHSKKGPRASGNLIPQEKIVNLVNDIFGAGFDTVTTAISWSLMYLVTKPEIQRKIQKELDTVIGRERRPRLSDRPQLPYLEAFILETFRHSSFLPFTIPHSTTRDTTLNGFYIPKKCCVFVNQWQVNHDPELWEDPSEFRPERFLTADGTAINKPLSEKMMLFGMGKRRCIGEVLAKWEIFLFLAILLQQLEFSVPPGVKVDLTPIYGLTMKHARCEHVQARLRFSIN

Cytochrome P450 2B6 = target: T4, Cytochrome P450 2B6 (Homo sapiens, UniProt P20813); test: Inhibition of human recombinant CYP2B6 incubated for 15 mins prior to substrate addition measured after 30 mins by spectrophotometry; type: ADME
T4 sequence (P20813 whole entry): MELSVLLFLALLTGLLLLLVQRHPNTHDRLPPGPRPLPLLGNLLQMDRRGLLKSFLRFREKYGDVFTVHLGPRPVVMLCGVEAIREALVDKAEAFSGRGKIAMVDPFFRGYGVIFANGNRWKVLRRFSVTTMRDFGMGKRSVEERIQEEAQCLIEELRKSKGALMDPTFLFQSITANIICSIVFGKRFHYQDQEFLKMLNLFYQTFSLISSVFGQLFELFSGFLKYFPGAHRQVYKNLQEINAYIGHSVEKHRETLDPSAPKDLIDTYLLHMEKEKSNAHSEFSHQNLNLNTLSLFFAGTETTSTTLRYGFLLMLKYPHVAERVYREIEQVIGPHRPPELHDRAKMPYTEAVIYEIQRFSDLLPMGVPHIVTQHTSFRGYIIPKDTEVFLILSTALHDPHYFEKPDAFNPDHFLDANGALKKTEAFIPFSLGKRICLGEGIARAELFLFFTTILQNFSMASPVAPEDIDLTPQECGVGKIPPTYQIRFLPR

Cytochrome P450 3A4 = Cytochrome P450 3A4 (Homo sapiens, UniProt P08684); test: Inhibition of human recombinant CYP3A4 incubated for 15 mins prior to substrate addition measured after 30 mins by spectrophotometry; type: ADME
Cytochrome P450 3A4, sequence (P08684 whole entry): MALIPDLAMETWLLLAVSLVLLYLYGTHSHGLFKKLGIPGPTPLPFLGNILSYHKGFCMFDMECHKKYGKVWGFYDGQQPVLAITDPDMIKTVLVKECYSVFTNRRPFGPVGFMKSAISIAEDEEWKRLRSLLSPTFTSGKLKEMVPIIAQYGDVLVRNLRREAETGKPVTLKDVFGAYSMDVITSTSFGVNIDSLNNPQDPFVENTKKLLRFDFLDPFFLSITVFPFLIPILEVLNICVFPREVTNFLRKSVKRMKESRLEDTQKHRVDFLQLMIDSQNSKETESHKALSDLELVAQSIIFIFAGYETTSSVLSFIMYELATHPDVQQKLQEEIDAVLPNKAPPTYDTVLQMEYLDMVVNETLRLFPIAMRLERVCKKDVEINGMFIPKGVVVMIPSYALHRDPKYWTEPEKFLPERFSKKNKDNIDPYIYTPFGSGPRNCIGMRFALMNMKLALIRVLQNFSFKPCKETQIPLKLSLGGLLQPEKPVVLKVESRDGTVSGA

Cytochrome P450 2D6 = Cytochrome P450 2D6 (Homo sapiens, UniProt P10635); test: Inhibition of human recombinant CYP2D6 incubated for 15 mins prior to substrate addition measured after 30 mins by spectrophotometry; type: ADME
Cytochrome P450 2D6, sequence (P10635 whole entry): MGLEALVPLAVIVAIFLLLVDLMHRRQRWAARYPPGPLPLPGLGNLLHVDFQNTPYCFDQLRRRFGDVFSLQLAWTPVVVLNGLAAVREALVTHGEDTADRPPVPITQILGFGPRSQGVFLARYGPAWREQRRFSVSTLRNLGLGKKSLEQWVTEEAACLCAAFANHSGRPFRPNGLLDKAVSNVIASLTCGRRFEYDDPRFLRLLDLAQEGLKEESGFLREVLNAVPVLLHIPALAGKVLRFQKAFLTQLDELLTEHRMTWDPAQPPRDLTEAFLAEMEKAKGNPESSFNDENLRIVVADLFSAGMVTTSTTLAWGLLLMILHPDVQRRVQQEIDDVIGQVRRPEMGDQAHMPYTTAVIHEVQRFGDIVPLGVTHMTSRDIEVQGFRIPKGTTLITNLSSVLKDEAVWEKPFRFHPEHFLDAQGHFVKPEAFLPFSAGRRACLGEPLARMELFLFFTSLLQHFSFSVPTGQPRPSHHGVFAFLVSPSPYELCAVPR

[5] = Intrinsic clearance in human liver microsomes assessed per mg protein at 1 uM up to 45 mins by LC/MS analysis; type: ADME, Microsome; details: read-out: CLH
[6] = Intrinsic clearance in rat liver microsomes assessed per mg protein at 1 uM up to 45 mins by LC/MS analysis; type: ADME, Microsome; details: read-out: CLH
Cytochrome P450 2C8 = target: T5, Cytochrome P450 2C8 (Homo sapiens, UniProt P10632); test: Inhibition of human recombinant CYP2C8 incubated for 15 mins prior to substrate addition measured after 30 mins by spectrophotometry; type: ADME
T5 sequence (P10632 whole entry): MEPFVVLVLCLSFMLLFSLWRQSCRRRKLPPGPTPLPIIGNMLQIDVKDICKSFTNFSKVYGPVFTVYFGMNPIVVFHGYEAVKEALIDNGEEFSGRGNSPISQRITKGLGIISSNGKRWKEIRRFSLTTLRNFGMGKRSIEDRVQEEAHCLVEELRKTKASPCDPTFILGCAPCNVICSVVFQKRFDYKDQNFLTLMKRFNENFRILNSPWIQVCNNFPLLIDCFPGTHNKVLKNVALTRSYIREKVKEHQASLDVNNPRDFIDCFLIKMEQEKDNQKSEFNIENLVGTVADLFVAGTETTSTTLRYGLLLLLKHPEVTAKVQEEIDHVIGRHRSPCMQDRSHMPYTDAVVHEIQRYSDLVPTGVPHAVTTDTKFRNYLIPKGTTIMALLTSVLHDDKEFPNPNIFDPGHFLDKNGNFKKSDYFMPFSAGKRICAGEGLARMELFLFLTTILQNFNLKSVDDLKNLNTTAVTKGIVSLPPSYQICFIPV

Cytochrome P450 2C9 = Cytochrome P450 2C9 (Homo sapiens, UniProt P11712); test: Inhibition of human recombinant CYP2C9 incubated for 15 mins prior to substrate addition measured after 30 mins by spectrophotometry; type: ADME
Cytochrome P450 2C9, sequence (P11712 whole entry): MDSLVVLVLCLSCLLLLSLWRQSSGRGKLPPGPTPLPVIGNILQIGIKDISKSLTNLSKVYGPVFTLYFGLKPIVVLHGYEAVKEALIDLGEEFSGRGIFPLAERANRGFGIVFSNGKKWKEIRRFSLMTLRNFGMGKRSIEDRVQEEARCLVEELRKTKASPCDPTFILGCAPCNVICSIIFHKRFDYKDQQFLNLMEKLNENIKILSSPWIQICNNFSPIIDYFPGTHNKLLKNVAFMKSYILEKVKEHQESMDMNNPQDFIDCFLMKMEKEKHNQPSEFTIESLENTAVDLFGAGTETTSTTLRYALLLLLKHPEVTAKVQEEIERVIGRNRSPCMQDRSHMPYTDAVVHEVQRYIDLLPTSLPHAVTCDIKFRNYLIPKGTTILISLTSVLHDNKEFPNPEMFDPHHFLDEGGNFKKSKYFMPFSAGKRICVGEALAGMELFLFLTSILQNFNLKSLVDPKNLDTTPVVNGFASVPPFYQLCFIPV

Cytochrome P450 2C19 = Cytochrome P450 2C19 (Homo sapiens, UniProt P33261); test: Inhibition of human recombinant CYP2C19 incubated for 15 mins prior to substrate addition measured after 30 mins by spectrophotometry; type: ADME
Cytochrome P450 2C19, sequence (P33261 whole entry): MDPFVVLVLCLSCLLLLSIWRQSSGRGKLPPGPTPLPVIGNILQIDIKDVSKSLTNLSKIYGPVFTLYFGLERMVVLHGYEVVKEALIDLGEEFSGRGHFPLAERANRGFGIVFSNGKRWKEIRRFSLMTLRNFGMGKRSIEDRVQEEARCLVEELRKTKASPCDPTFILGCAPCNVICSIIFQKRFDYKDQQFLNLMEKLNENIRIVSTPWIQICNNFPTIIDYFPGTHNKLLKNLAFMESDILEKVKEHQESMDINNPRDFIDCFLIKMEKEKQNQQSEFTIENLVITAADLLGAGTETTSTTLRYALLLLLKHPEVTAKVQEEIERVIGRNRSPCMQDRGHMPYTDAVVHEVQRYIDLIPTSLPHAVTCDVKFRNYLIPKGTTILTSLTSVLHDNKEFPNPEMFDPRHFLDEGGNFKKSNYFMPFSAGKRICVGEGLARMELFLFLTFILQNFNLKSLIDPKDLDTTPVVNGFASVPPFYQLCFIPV

[7] = Apparent permeability across human Caco2 cells at 1 uM after 2 hrs by LC/MS analysis; type: ADME, cell-based; details: Caco-2
[8] = Half life in C57BL/6 mouse at 1 mg/kg, iv; type: ADME, organism-based; set-up: dose 1 mg/kg, route intravenous; details: in vivo
[9] = Volume of distribution at steady state in C57BL/6 mouse at 1 mg/kg, iv and 5 mg/kg, po; type: ADME, organism-based; details: in vivo, read-out: Vdss

| Structure (SMILES) | Ki [1] | Emax [2] | IC50 [3] | inhibition [4] | IC50 (Cytochrome P450 1A2) | IC50 (Cytochrome P450 2B6) | IC50 (Cytochrome P450 3A4) | IC50 (Cytochrome P450 2D6) | microsomal CLint at 1 µM [5] | microsomal CLint at 1 µM [6] | IC50 (Cytochrome P450 2C8) | IC50 (Cytochrome P450 2C9) | IC50 (Cytochrome P450 2C19) | Papp at 2 h, 1 µM [7] | half-life [8] | Vd [9] |
| --- | --- | --- | --- | --- | --- | --- | --- | --- | --- | --- | --- | --- | --- | --- | --- | --- |
| CCCCC(=O)N(Cc1ccc(OC(F)(F)F)cc1)c1cc(Cl)cc(-c2nnn[nH]2)c1 | 0.019 µM | -10% | 0.02 µM | 112% | > 10 µM | > 10 µM | > 10 µM | > 10 µM |  |  |  |  |  |  |  |  |
| CCC(=O)N(Cc1ccc(C(F)(F)F)cc1)c1cccc(-c2nnn[nH]2)c1 | 0.11 µM |  |  |  | > 10 µM | > 10 µM | > 10 µM | > 10 µM |  |  |  |  |  |  |  |  |
| CCC(=O)N(Cc1ccc(OC(F)(F)F)cc1)c1cc(F)cc(-c2nnn[nH]2)c1 | 0.0069 µM |  |  |  | > 10 µM | > 10 µM | > 10 µM | > 10 µM | < 10 µL/min/mg | 12 µL/min/mg | 0.043 µM | 0.2 µM | 0.051 µM |  |  |  |
| CCC(=O)N(Cc1ccc(C(F)(F)F)cc1)c1cc(F)cc(-c2nnn[nH]2)c1 | 0.0057 µM | -8% | 0.037 µM | 105% | > 10 µM | > 10 µM | > 10 µM | > 10 µM | < 10 µL/min/mg | < 10 µL/min/mg | 0.086 µM | 0.28 µM | 0.038 µM | 3 ×10⁻⁶ cm/s | 1.4 h | 0.9 L/kg |
| CCC(=O)N(Cc1cccc(C(F)(F)F)c1)c1cccc(-c2nnn[nH]2)c1 | 0.22 µM |  |  |  | > 10 µM | > 10 µM | > 10 µM | > 10 µM |  |  |  |  |  |  |  |  |

The remaining lines, values ahead:

| Ki [1] | Emax [2] | IC50 [3] | inhibition [4] | IC50 (Cytochrome P450 1A2) | IC50 (Cytochrome P450 2B6) | IC50 (Cytochrome P450 3A4) | IC50 (Cytochrome P450 2D6) | microsomal CLint at 1 µM [5] | microsomal CLint at 1 µM [6] | IC50 (Cytochrome P450 2C8) | IC50 (Cytochrome P450 2C9) | IC50 (Cytochrome P450 2C19) | Papp at 2 h, 1 µM [7] | half-life [8] | Vd [9] | Structure (SMILES) |
| --- | --- | --- | --- | --- | --- | --- | --- | --- | --- | --- | --- | --- | --- | --- | --- | --- |
| 0.0045 µM |  |  |  | > 10 µM | > 10 µM | > 10 µM | > 10 µM |  |  |  |  |  |  |  |  | CCCCC(=O)N(Cc1cccc(OC(F)(F)F)c1)c1cc(F)cc(-c2nnn[nH]2)c1 |
| 0.0077 µM |  |  |  | > 10 µM | > 10 µM | > 10 µM | > 10 µM |  |  |  |  |  |  |  |  | CCCCC(=O)N(Cc1ccc(OC(F)(F)F)cc1)c1cc(F)cc(-c2nnn[nH]2)c1 |
| 0.0024 µM |  |  |  | > 10 µM | > 10 µM | > 10 µM | > 10 µM |  |  |  |  |  |  |  |  | CCCCC(=O)N(Cc1ccc(C(F)(F)F)cc1)c1cc(F)cc(-c2nnn[nH]2)c1 |
